Test system: Human dermal fibroblasts
Test: Stimulation of fibroblast proliferation by PDGF and FGFb (CellTiter 96 Aqueous One, absorbance 490 nm)
Type: cell-based
Conditions: 24 h, compared to the control (untreated = 100.00)
Protocol: Human dermal fibroblasts from a single donor were obtained from Cascade. At the 7rd passage, cells were seeded in 96 well plates and cultured in Dulbecco's modified Eagle medium DMEM (Gibco BRL, Gaithersburg, USA) supplemented with 10% foetal bovine serum (FBS, PAA, Linz, Austria), […] L-glutamine (Gibco) and 1% penicillin/streptomycin (Gibco). All cell culture was performed at […] in 5% CO2 and 95% air. This fibroblast culture was incubated by two growth factors ([…] and FGFb) at various concentrations for 24 h. After 24 hours incubation, 200 μL dosed media from 96-well plate were removed. CellTiter 96 Aqueous One Solution Reagent was used as described by the manufacturer. The absorbance at 490 nm was recorded using a plate reader to evaluate cell proliferation. The controls were the non treated cells. The experiment was conducted in 8 times by concentration.

Row | Substance | Stimulation (%) of fibroblast proliferation (1 ng/ml) [%] | Stimulation (%) of fibroblast proliferation (10 ng/ml) [%] | Stimulation (%) of fibroblast proliferation (30 ng/ml) [%]
1 | PDGF | 107.20 | 154.37 | 185.58
2 | FGFb (157 aa): Basic Fibroblast Growth Factor (157 aa), growth factor added to fibroblast culture | 141.22 | 149.20 | –

Reference: US20090324752A1, “COSMETIC USE OF ACTIVE INGREDIENTS INCREASING THE PRODUCTION OF GROWTH FACTORS” (CHANEL PARFUMS BEAUTE, priority 2006, published 2009)
